Experimental data: patent publication US7964647B2 (Mutual Pharmaceutical Company, Inc., priority 2007, dated 2011)

System: patients with acute gout flare (acute gouty arthritic attack)
Assay: Multicenter, randomized, double-blind, placebo-controlled dose comparison study in acute gout flare: efficacy (target joint pain)
Format: in vivo, human
Conditions: for Difference between treatment groups in mean change from baseline in target joint pain, High vs. Low / Difference between treatment groups in mean change from baseline in target joint pain, High vs. Placebo / Difference between treatment groups in mean change from baseline in target joint pain, Low vs. Placebo / Change from baseline in target joint pain, Mean / Change from baseline in target joint pain, Median / Difference between treatment groups in mean change from baseline in target joint pain score at 24 hours, High vs. Low / Difference between treatment groups in mean change from baseline in target joint pain score at 24 hours, High vs. Placebo / Difference between treatment groups in mean change from baseline in target joint pain score at 24 hours, Low vs. Placebo: LOCF, ITT
Description: A sufficient number of patients are screened to enroll and randomize 300 patients (100 patients per treatment group) who meet the criteria of the American College of Rheumatology (ACR) for acute arthritis of gout.
Efficacy assessment will be made based on patient and Investigator inputs. Patients will record pain severity and sleep interference on a study diary. The severity of pain for each joint affected by the acute gouty arthritic attack will be rated on an 11-point pain intensity numerical rating scale (PI-NRS) that ranges from 0 (“no pain”) to 10 (“worst possible pain”). […] Investigators will provide clinical assessments in the clinic at all Post-Flare Phase study visits, and at medically necessary intervening visits. For these assessments, each of the patient's joints affected by the acute gouty arthritic attack will be examined and signs and symptoms of inflammation will be rated (erythema [absent, present, or not assessable], swelling [0, “none” to 3, “severe”], and tenderness to touch [0, “none” to 3, “severe”]).
The target joint is identified during data analysis as that joint affected by the acute gout flare with the highest baseline pain score on the patient diary. Ties among maximum joint scores for an individual are resolved by random selection.
The secondary efficacy variables are assessments of magnitude of pain reduction, time to response, time to complete pain relief, and interference with sleep as recorded on patient diaries by the patient. Signs and symptoms of inflammation per Investigator's clinical assessments of the target joint are evaluated. Time to drop out (use of rescue medications) is also evaluated. Investigator global assessment of response to treatment is assessed.
Analyses will also be made on an Evaluable patient population with an Evaluable patient defined as one who, in addition to being included in the PP population, completed the randomized treatment course. The ITT population will be used for the evaluation of safety.
Statistical tests for efficacy analysis are two-tailed with an alpha significance level of 0.05.
The sensitivity to alternate definitions of response (based both on magnitude of reduction from baseline as well as time point) will be evaluated as secondary endpoints. As additional sensitivity analyses, these tests will also be repeated for the PP and Evaluable populations if the sample sizes differ from the overall ITT population by more than 10%.
Change in pain intensity, interference with sleep, time to 50% reduction in pain, and time to complete pain relief will be analyzed as continuous variables using analysis of covariance with study site, treatment group, and site by treatment interaction as independent variables for change in pain intensity and interference with sleep, with baseline score as a covariate. For the Investigator's clinical assessment of inflammation (erythema, swelling, and tenderness to touch) and Investigator's global assessment of response to treatment, the treatment groups will be compared using the Mantel-Haenszel chi-square test stratified on study site.

[1] = 24 hours post first dose, High dose 4.8 mg, N = 52
[2] = 24 hours post first dose, Low dose 1.8 mg, N = 74
[3] = 32 hours post first dose, High dose 4.8 mg, N = 52
[4] = 32 hours post first dose, Low dose 1.8 mg, N = 74
[5] = Early treatment start (within 4 hours)
[6] = Early treatment start (within 4 hours), High dose 4.8 mg
[7] = Early treatment start (within 4 hours), Low dose 1.8 mg
[8] = Hour 24, High dose 4.8 mg, n = 51
[9] = Hour 24, Low dose 1.8 mg, n = 74
[10] = Hour 32, High dose 4.8 mg, n = 51
[11] = Hour 32, Low dose 1.8 mg, n = 74
[12] = Late treatment start (after 4 hours)
[13] = Late treatment start (after 4 hours), High dose 4.8 mg
[14] = Late treatment start (after 4 hours), Low dose 1.8 mg

## COc1cc2c(c(OC)c1OC)-c1ccc(OC)c(=O)cc1[C@@H](NC(C)=O)CC2 [Colchicine, (−)-N-[(7S,12aS)-1,2,3,10-tetramethoxy-9-oxo-5,6,7,9-tetrahydrobenzo[a]heptalen-7-yl]-acetamide]
24 hours post first dose
  Difference between treatment groups in mean change from baseline in target joint pain, High vs. Low: 0.2
  Difference between treatment groups in mean change from baseline in target joint pain, High vs. Placebo: −1.3
  Difference between treatment groups in mean change from baseline in target joint pain, Low vs. Placebo: −1.5
[1]
  Change from baseline in target joint pain, Mean: −2.0
  Change from baseline in target joint pain, Median: −2.0
  Number (%) of responders, at least a 2-unit reduction in target joint pain score: 18 (34.6) Number (%)
[2]
  Change from baseline in target joint pain, Mean: −2.2
  Change from baseline in target joint pain, Median: −2.0
  Number (%) of responders, at least a 2-unit reduction in target joint pain score: 32 (43.2) Number (%)
32 hours post first dose
  Difference between treatment groups in mean change from baseline in target joint pain, High vs. Low: 0.1
  Difference between treatment groups in mean change from baseline in target joint pain, High vs. Placebo: −1.6
  Difference between treatment groups in mean change from baseline in target joint pain, Low vs. Placebo: −1.6
[3]
  Change from baseline in target joint pain, Mean: −2.3
  Change from baseline in target joint pain, Median: −2.0
  Number (%) of responders, at least a 2-unit reduction in target joint pain score: 20 (38.5) Number (%)
[4]
  Change from baseline in target joint pain, Mean: −2.4
  Change from baseline in target joint pain, Median: −2.5
  Number (%) of responders, at least a 2-unit reduction in target joint pain score: 34 (45.9) Number (%)
[5]
  Difference between treatment groups in mean change from baseline in target joint pain score at 24 hours, High vs. Low: 0.2
  Difference between treatment groups in mean change from baseline in target joint pain score at 24 hours, High vs. Placebo: −1.3
  Difference between treatment groups in mean change from baseline in target joint pain score at 24 hours, Low vs. Placebo: −1.5
[6]
  Change from baseline in target joint pain score at 24 hours post first dose, Mean: −2.0
  Change from baseline in target joint pain score at 24 hours post first dose, Median: −2.0
[7]
  Change from baseline in target joint pain score at 24 hours post first dose, Mean: −2.2
  Change from baseline in target joint pain score at 24 hours post first dose, Median: −2.0
High (standard) dose 4.8 mg over 6 h, N = 52, ITT
  Number of responders (>=50% reduction in target joint pain score, no rescue medication) at 24 hours post first dose: 17 (32.7) N (%)
High dose 4.8 mg, N = 52
  Number (%) of patients using rescue medication up to and including the 24-hour post first dose assessment: 18 (34.6) n (%)
  Patients with >=0% improvement in target joint pain score at 24 hours post first dose: 52 (100.0%)
  Patients with >=10% improvement in target joint pain score at 24 hours post first dose: 32 (61.5%)
  Patients with >=20% improvement in target joint pain score at 24 hours post first dose: 29 (55.8%)
  Patients with >=30% improvement in target joint pain score at 24 hours post first dose: 21 (40.4%)
  Patients with >=40% improvement in target joint pain score at 24 hours post first dose: 21 (40.4%)
  Patients with >=50% improvement in target joint pain score at 24 hours post first dose: 19 (36.5%)
  Patients with >=60% improvement in target joint pain score at 24 hours post first dose: 15 (28.8%)
  Patients with >=70% improvement in target joint pain score at 24 hours post first dose: 10 (19.2%)
  Patients with >=80% improvement in target joint pain score at 24 hours post first dose: 9 (17.3%)
  Patients with >=90% improvement in target joint pain score at 24 hours post first dose: 6 (11.5%)
  Patients with >=100% improvement in target joint pain score at 24 hours post first dose: 6 (11.5%)
[8]
  Total Pain Relief (TOTPAR) based on all target joint pain scores, Mean: 20.9
  Total Pain Relief (TOTPAR) based on all target joint pain scores, Median: 11.5
[9]
  Total Pain Relief (TOTPAR) based on all target joint pain scores, Mean: 30.5
  Total Pain Relief (TOTPAR) based on all target joint pain scores, Median: 23.0
[10]
  Total Pain Relief (TOTPAR) based on all target joint pain scores, Mean: 31.9
  Total Pain Relief (TOTPAR) based on all target joint pain scores, Median: 27.5
[11]
  Total Pain Relief (TOTPAR) based on all target joint pain scores, Mean: 45.5
  Total Pain Relief (TOTPAR) based on all target joint pain scores, Median: 34.1
[12]
  Difference between treatment groups in mean change from baseline in target joint pain score at 24 hours, High vs. Low: 0.1
  Difference between treatment groups in mean change from baseline in target joint pain score at 24 hours, High vs. Placebo: −1.6
  Difference between treatment groups in mean change from baseline in target joint pain score at 24 hours, Low vs. Placebo: −1.6
[13]
  Change from baseline in target joint pain score at 24 hours post first dose, Mean: −2.3
  Change from baseline in target joint pain score at 24 hours post first dose, Median: −2.0
[14]
  Change from baseline in target joint pain score at 24 hours post first dose, Mean: −2.4
  Change from baseline in target joint pain score at 24 hours post first dose, Median: −2.5
Low dose 1.8 mg over 1 h, N = 74, ITT
  Number of responders (>=50% reduction in target joint pain score, no rescue medication) at 24 hours post first dose: 28 (37.8) N (%)
Low dose 1.8 mg, N = 74
  Number (%) of patients using rescue medication up to and including the 24-hour post first dose assessment: 23 (31.1) n (%)
  Patients with >=0% improvement in target joint pain score at 24 hours post first dose: 74 (100.0%)
  Patients with >=10% improvement in target joint pain score at 24 hours post first dose: 47 (63.5%)
  Patients with >=20% improvement in target joint pain score at 24 hours post first dose: 45 (60.8%)
  Patients with >=30% improvement in target joint pain score at 24 hours post first dose: 39 (52.7%)
  Patients with >=40% improvement in target joint pain score at 24 hours post first dose: 36 (48.6%)
  Patients with >=50% improvement in target joint pain score at 24 hours post first dose: 30 (40.5%)
  Patients with >=60% improvement in target joint pain score at 24 hours post first dose: 24 (32.4%)
  Patients with >=70% improvement in target joint pain score at 24 hours post first dose: 20 (27.0%)
  Patients with >=80% improvement in target joint pain score at 24 hours post first dose: 15 (20.3%)
  Patients with >=90% improvement in target joint pain score at 24 hours post first dose: 9 (12.2%)
  Patients with >=100% improvement in target joint pain score at 24 hours post first dose: 8 (10.8%)
Low dose 1.8 mg
  Patients achieving at least 40% relief at 24 hrs post-first dose, regardless of pain rescue (FIG. 1): 49%
  Proportion of patients rescued prior to 24 hours: 28.4%
  Proportion of patients with ≧50% pain reduction at 24 hrs without pain rescue: 37.8%
Standard dose 4.8 mg
  Proportion of patients rescued prior to 24 hours: 34.6%
  Proportion of patients with ≧50% pain reduction at 24 hrs without pain rescue: 32.7%
